Counter-ions that a name gives are not always drawn. Like-named read-outs stand apart in the source and are kept apart here.
How the values were obtained:
Experiment in all cases: Microculture tetrazolium assay
Type in all cases: cell-based
[1] = test system: HT29
[2] = test system: SKVLB; details: for VLB/OV3: IC50 ratio SKVLB/SKOV3; for IC50: SKVLB
[3] = test system: T47D
[4] = test system: LOX
[5] = test system: SKOV3
[6] = Homo sapiens, HT-29, HT29, read-out: IC50
[7] = Homo sapiens, SK-OV-3, SKOV3, read-out: IC50

CC(C)[C@H]1Cc2c(O)c3c(c(O)c2[C@H](O[C@H]2C[C@H](N)[C@H](O)[C@H](C)O2)O1)C(=O)c1ccccc1C3=O [BCH-2049, (1'S,1S,3R)-5,12-trihydroxy-3-isopropyl-1-(2',3',6'-trideoxy-3'-amino-L-lyxohexopyranose)-1,2,3,4-tetrahydro-(2-oxygen)-naphthacene-6,11-dione-hydrochloride]
IC50 [1, 6]: 0.0773 µM | VLB/OV3 [2]: 1.72 | IC50 ([2]; read-out: IC50): 0.472 µM | IC50 ([3]; Homo sapiens, read-out: IC50): 0.263 µM | IC50 ([4]; read-out: IC50): 0.102 µM | IC50 [5, 7]: 0.275 µM

CC(C)[C@@H]1Cc2c(O)c3c(c(O)c2[C@@H](O[C@H]2C[C@H](N)[C@H](O)[C@H](C)O2)O1)C(=O)c1ccccc1C3=O [BCH-2050, (1'S,1R,3S)-5,12-Dixydroxy-3-isopropy-1-(2',3',6'-trideoxy-3'-amino 'L-lyxohexopyranose)-1,2,3,4-tetrahydro-(2-oxygen)-naphtacene-6,11-dione-hydrochloride]
IC50 [1, 6]: 0.304 µM | VLB/OV3 [2]: 0.95 | IC50 ([2]; read-out: IC50): 0.0672 µM | IC50 ([3]; Homo sapiens, read-out: IC50): 0.412 µM | IC50 ([4]; read-out: IC50): 0.0384 µM | IC50 [5, 7]: 0.0706 µM

C[C@@H]1O[C@@H](O[C@@H]2O[C@@H](COc3ccccc3)CC3=C2C(=O)c2cc4ccccc4c(O)c2C3=O)C[C@H](NC(=O)C(F)(F)F)[C@@H]1O [BCH-2057, (1'S,1S,3R)-5,12-dioxo-6-hydroxy-3-phenyloxymethyl-1-(2',3',6'-trideoxy-3'-trifluoroacetamido-L-lyxohexopyranose)-3,4,5,12-tetrahydroanthraceno-[2,3-c]pyran]
IC50 [1, 6]: 2.69 µM | VLB/OV3 [2]: 5.01 | IC50 ([2]; read-out: IC50): 5.16 µM | IC50 ([3]; Homo sapiens, read-out: IC50): 0.243 µM | IC50 ([4]; read-out: IC50): 1.49 µM | IC50 [5, 7]: 1.03 µM

CC(=O)[C@@H]1Cc2c(O)c3c(c(O)c2[C@@H](O[C@@H]2O[C@@H](C)[C@@H](O)[C@@H](NC(=O)C(F)(F)F)C2I)O1)C(=O)c1ccccc1C3=O (stereo partly drawn) [BCH-2063]
IC50 [1, 6]: 2.66 µM | VLB/OV3 [2]: 4.34 | IC50 ([2]; read-out: IC50): 1.94 µM | IC50 ([3]; Homo sapiens, read-out: IC50): 0.146 µM | IC50 ([4]; read-out: IC50): 0.314 µM | IC50 [5, 7]: 0.447 µM

CC(=O)[C@H]1CC2=C(C(=O)c3cc4ccccc4c(O)c3C2=O)[C@H](O[C@@H]2O[C@@H](C)[C@@H](O)[C@@H](NC(=O)C(F)(F)F)C2I)O1 (stereo partly drawn) [BCH-2064]
IC50 [1, 6]: 0.44 µM | VLB/OV3 [2]: 2.38 | IC50 ([2]; read-out: IC50): 3.45 µM | IC50 ([3]; Homo sapiens, read-out: IC50): 0.878 µM | IC50 ([4]; read-out: IC50): 10.8 µM | IC50 [5, 7]: 1.45 µM

CC(=O)[C@@H]1Cc2c(O)c3c(c(O)c2[C@@H](O[C@@H]2O[C@@H](C)[C@@H](O)[C@@H](N)C2I)O1)C(=O)c1ccccc1C3=O (stereo partly drawn) [BCH-2066, (1'S,1R,3S)-Methyl-(5,12-dihydroxy-1-[2',3',6'-trideoxy-3'-amino-4'hydroxy-2'-iodo-L-lyxohexopyranose]-6,11-dioxo-3,4,6,11-tetrahydroanthraceno-[2,3C]-pyran-3-yl) ketone hydrochloride]
IC50 [1, 6]: 0.534 µM | VLB/OV3 [2]: 6.32 | IC50 ([2]; read-out: IC50): 0.586 µM | IC50 ([3]; Homo sapiens, read-out: IC50): 0.501 µM | IC50 ([4]; read-out: IC50): 0.105 µM | IC50 [5, 7]: 0.0927 µM

CC(=O)[C@@H]1CC2=C(C(=O)c3cc4ccccc4c(O)c3C2=O)[C@@H](O[C@H]2O[C@H](CO)[C@@H](O)[C@H](O)[C@H]2NC(=O)N(CCCl)N=O)O1 [BCH-2073, (1'R, 1R,3S)-3-Aceto-6-hydroxy-1-(2-deoxy-2-chloroethylnitrosoureido-D-glucopyranose)-5,12-dioxo-3,4,5,12-tetrahydro-1H-anthra[2,3-C]pyran]
IC50 ([1]; Homo sapiens, HT-29, HT29): 6.59 µM | VLB/OV3 [2]: 2.67 | IC50 [2]: 13.7 µM | IC50 ([3]; Homo sapiens): 6.12 µM | IC50 [4]: 0.807 µM | IC50 ([5]; Homo sapiens, SK-OV-3, SKOV3): 5.14 µM

CC(=NO)[C@H]1Cc2c(O)c3c(c(O)c2[C@H](O[C@H]2C[C@H](N)[C@H](O)[C@H](C)O2)O1)C(=O)c1ccccc1C3=O [BCH-2074, (1'S, 1S,3R)-3-(Oximoethyl)-5,12-dihydroxy-1(2,3,6-trideoxy-3-amino-L-lyxohexolpyranose)-6,11-dioxo-3,4,6,11-tetrahydro-1H-anthra[2,3-C]pyran hydrochloride]
IC50 [1, 6]: 0.586 µM | VLB/OV3 [2]: 45.48 | IC50 ([2]; read-out: IC50): 14.1 µM | IC50 ([3]; Homo sapiens, read-out: IC50): 0.693 µM | IC50 ([4]; read-out: IC50): 0.148 µM | IC50 [5, 7]: 0.31 µM

CCC1COC(OC2CC(NC(=O)C(F)(F)F)C(O)C(C)O2)C2=C1C(=O)c1c(cc3ccccc3c1O)C2=O [BCH-2080, (1'S,1S,4S)-5,12-Dioxo-4-ethyl-6-hydroxy-1-(2',3',6'-trideoxy-3'-trifluoroacetamido-L-lyxohexopyranose)-3,4,5,12-tetrahydroanthraceno-[2,3-c]-pyran]
IC50 [1, 6]: 3 µM | IC50 ([2]; read-out: IC50): 4.7 µM | IC50 ([3]; Homo sapiens, read-out: IC50): 3.6 µM | IC50 ([4]; read-out: IC50): 2.1 µM | IC50 [5, 7]: 2.4 µM

CCC1COC(OC2CC(N)C(O)C(C)O2)c2c(O)c3c(c(O)c21)C(=O)c1ccccc1C3=O [BCH-2086, (1'S,1R,4R)-5,12-Dihydroxy-4-ethyl-1-(2',3',6'-trideoxy-3'-amino-L-lyxohexopyranose)-1,2,3,4-tetrahydro-(2-oxygen)-naphthacene-6,11-dione-hydrochloride]
IC50 [1, 6]: 0.64 µM | IC50 ([2]; read-out: IC50): 1.7 µM | IC50 ([3]; Homo sapiens, read-out: IC50): 1.4 µM | IC50 ([4]; read-out: IC50): 0.36 µM | IC50 [5, 7]: 0.86 µM

CCCCC[C@H]1Cc2c(O)c3c(c(O)c2[C@H](O[C@H]2C[C@H](N)[C@H](O)[C@H](C)O2)O1)C(=O)c1ccccc1C3=O [BCH-2088, (1'S,1S,3S)-5,12-mihydroxy-3-pentyl-1-(2',3',6'-trideoxy-3'-amino-L-lyxohexopyranose)-1,2,3,4-tetrahydro-(2-oxygen)-naphtacene-6,11-dione-hydrochloride]
IC50 [1, 6]: 0.024 µM | VLB/OV3 [2]: 1.90 | IC50 ([2]; read-out: IC50): 1.09 µM | IC50 ([3]; Homo sapiens, read-out: IC50): 0.174 µM | IC50 ([4]; read-out: IC50): 0.201 µM | IC50 [5, 7]: 0.573 µM

CCCCCC1Cc2c(O)c3c(c(O)c2C(O[C@H]2C[C@H](N)[C@H](O)[C@H](C)O2)O1)C(=O)c1ccccc1C3=O (stereo partly drawn) [BCH-2089, (1'S,1R,3R)-5,12-Dihydroxy-3-pentyl-1-(2',3',6'-trideoxy-3'-amino-L-lyxohexopyranose)-1,2,3,4-tetrahydro-(2-oxygen)-naphtacene-6,11-dione-hydrochloride]
IC50 [1, 6]: 0.194 µM | VLB/OV3 [2]: 1.27 | IC50 ([2]; read-out: IC50): 0.42 µM | IC50 ([3]; Homo sapiens, read-out: IC50): 0.201 µM | IC50 ([4]; read-out: IC50): 0.104 µM | IC50 [5, 7]: 0.332 µM

CC(=O)[C@@H]1CC2=C(C(=O)c3cc4ccccc4c(O)c3C2=O)[C@@H](O[C@H]2C[C@H](NC(=O)C(F)(F)F)[C@H](OS(C)(=O)=O)[C@H](C)O2)O1 [BCH-2093, (1S,1R,3S)-Methyl-(6-hydroxy-1-(2',3',4',6'-tetradeoxy-3'-trifluoroacetamido-4'-O-methanesulfonyl-L-lyxohexopyranose)-5,12-dioxo-3,4,5,12-tetrahydroanthraceno[2,3-c]pyran-3-yl)ketone]
IC50 [1, 6]: 2.8 µM | VLB/OV3 [2]: 3.82 | IC50 ([2]; read-out: IC50): 39.3 µM | IC50 ([3]; Homo sapiens, read-out: IC50): 15.9 µM | IC50 ([4]; read-out: IC50): 4.36 µM | IC50 [5, 7]: 10.3 µM

CC(=O)C1CC2=C(C(=O)c3cc4ccccc4c(O)c3C2=O)C(O[C@H]2C[C@H](NC(=O)C(F)(F)F)[C@H](OS(C)(=O)=O)[C@H](C)O2)O1 (stereo partly drawn) [BCH-2094]
IC50 [1, 6]: 1.06 µM | VLB/OV3 [2]: 2.55 | IC50 ([2]; read-out: IC50): 12 µM | IC50 ([3]; Homo sapiens, read-out: IC50): 6.51 µM | IC50 ([4]; read-out: IC50): 1.4 µM | IC50 [5, 7]: 4.7 µM

(1'S,1R,3R) and (1'S,1S,3S)-5,12-dioxo-3-ethyl-6-hydroxy-1-(2',3',6'-trideoxy-3'-trifluoroacetamido-4'-O-p-nitrobenzoyl-L-lyxohexopyranose)-3,4,5,12-tetrahydroanthraceno[2,3-C]pyran [BCH-1199]
IC50 ([1]; HT29, read-out: IC50): > 100 µM | IC50 ([2]; read-out: IC50): > 100 µM | IC50 ([3]; read-out: IC50): 46.2 µM | IC50 ([4]; read-out: IC50): > 100 µM | IC50 ([5]; SKOV3, read-out: IC50): 32.3 µM

(1'S,1R,3S) and (1'S,1S,3R)-Methyl-1-(2',3',6'-trideoxy-3-trifluoroacetamido-4'-O-p-nitrobenzoyl-L-lyxohexopyranose)-6,11'dioxo-5'-hydroxy-12-acetoxy-3,4,6,11-tetrahydroanthra-ceno-[2,3-C]-pyran-3-yl) ketone [BCH-1163]
IC50 ([1]; HT29, read-out: IC50): 4.67 µM | VLB/OV3 [2]: 1.05 | IC50 ([2]; read-out: IC50): 11.6 µM | IC50 ([3]; read-out: IC50): 5 µM | IC50 ([4]; read-out: IC50): 26.1 µM | IC50 ([5]; SKOV3, read-out: IC50): 11 µM

— US5593970A, “Heterocyclic anthracycline analogs” (priority 1994, dated 1997)
